# In ChEMBL document CHEMBL1201862, “PubChem BioAssay data set” (2004):
#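 Protocol summary: plate cells (96-well), add compound at 5 concentrations, incubate 48 h, interpolate endpoints linearly. GI50 marks 50% less growth.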 Active and inactive are the calls of the source. Rule as the data show it: active = GI50 up to about 1.1 µM and inactive = higher.
# Tests used:
# Experiment in all cases: inhibition of tumour cell growth, NCI panel, 48 h
# [1] = tested on: U-251
# [2] = tested on: UO-31
# [3] = tested on: SF-295
# [4] = tested on: EKVX
# [5] = tested on: ACHN
# [6] = tested on: BT-549
# [7] = tested on: MDA-N
# [8] = tested on: SK-MEL-28
# [9] = tested on: NCI-H460
# [10] = tested on: SNB-19
# [11] = tested on: M14
# [12] = tested on: SN12C
# [13] = tested on: TK-10
# [14] = tested on: NCI-H522
# [15] = tested on: HL-60
# [16] = tested on: UACC-62
# [17] = tested on: IGROV-1
# [18] = tested on: RXF 393
# [19] = tested on: LOX IMVI
# [20] = tested on: HOP-62
# [21] = tested on: NCI-H23
# [22] = tested on: NCI/ADR-RES
# [23] = tested on: CAKI-1
# [24] = tested on: DU-145
# [25] = tested on: HCC 2998
# [26] = tested on: MOLT-4
# [27] = tested on: MDA-MB-435
# [28] = tested on: OVCAR-5
# [29] = tested on: SK-MEL-5
# [30] = tested on: A498
# [31] = tested on: A549
# [32] = tested on: COLO 205
# [33] = tested on: HCT-116
# [34] = tested on: CCRF-CEM
# [35] = tested on: Hs-578T
# [36] = tested on: K562
# [37] = tested on: NCI-H226
# [38] = tested on: Malme-3M
# [39] = tested on: HOP-92
# [40] = tested on: T47D
# [41] = tested on: PC-3
# [42] = tested on: SF-268
# [43] = tested on: RPMI-8226
# [44] = tested on: HCT-15
# [45] = tested on: SK-MEL-2
# [46] = tested on: HT-29
# [47] = tested on: SK-OV-3
# [48] = tested on: UACC-257
# [49] = tested on: SR
# [50] = tested on: SW-620
# [51] = tested on: MCF7
# [52] = tested on: OVCAR-4
# [53] = tested on: MDA-MB-231
# [54] = tested on: KM12
# [55] = tested on: 786-0
# [56] = tested on: SF-539
# [57] = tested on: OVCAR-8
# [58] = tested on: SNB-75
# [59] = tested on: OVCAR-3
smiles,measurement,setting,value
O=C(Nc1ccccc1)N1CC(CN2CCN(c3ccccc3)CC2)OC1=O (centres undefined),GI50,[1],> 100 µM (inactive)
same,GI50,[2],> 100 µM (inactive)
same,GI50,[3],> 100 µM (inactive)
same,GI50,[4],> 100 µM (inactive)
same,GI50,[5],> 100 µM (inactive)
same,GI50,[6],> 100 µM (inactive)
same,GI50,[7],> 100 µM (inactive)
same,GI50,[8],> 100 µM (inactive)
same,GI50,[9],> 100 µM (inactive)
same,GI50,[10],> 100 µM (inactive)
same,GI50,[11],> 100 µM (inactive)
same,GI50,[12],> 100 µM (inactive)
same,GI50,[13],> 100 µM (inactive)
same,GI50,[14],80.9 µM (inactive)
same,GI50,[15],> 100 µM (inactive)
same,GI50,[16],> 100 µM (inactive)
same,GI50,[17],46.3 µM (inactive)
same,GI50,[18],> 100 µM (inactive)
same,GI50,[19],> 100 µM (inactive)
same,GI50,[20],> 100 µM (inactive)
same,GI50,[21],> 100 µM (inactive)
same,GI50,[22],> 100 µM (inactive)
same,GI50,[23],> 100 µM (inactive)
same,GI50,[24],> 100 µM (inactive)
same,GI50,[25],> 100 µM (inactive)
same,GI50,[26],> 100 µM (inactive)
same,GI50,[27],> 100 µM (inactive)
same,GI50,[28],> 100 µM (inactive)
same,GI50,[29],> 100 µM (inactive)
same,GI50,[30],> 100 µM (inactive)
same,GI50,[31],> 100 µM (inactive)
same,GI50,[32],> 100 µM (inactive)
same,GI50,[33],> 100 µM (inactive)
same,GI50,[34],> 100 µM (inactive)
same,GI50,[35],67 µM (inactive)
same,GI50,[36],> 100 µM (inactive)
same,GI50,[37],> 100 µM (inactive)
same,GI50,[38],> 100 µM (inactive)
same,GI50,[39],> 100 µM (inactive)
same,GI50,[40],> 100 µM (inactive)
same,GI50,[41],> 100 µM (inactive)
same,GI50,[42],> 100 µM (inactive)
same,GI50,[43],> 100 µM (inactive)
same,GI50,[44],> 100 µM
same,GI50,[45],> 100 µM (inactive)
same,GI50,[46],> 100 µM (inactive)
same,GI50,[47],> 100 µM (inactive)
same,GI50,[48],> 100 µM (inactive)
same,GI50,[49],> 100 µM (inactive)
same,GI50,[50],> 100 µM (inactive)
same,GI50,[51],> 100 µM (inactive)
same,GI50,[52],> 100 µM (inactive)
same,GI50,[53],> 100 µM (inactive)
same,GI50,[54],> 100 µM (inactive)
same,GI50,[55],> 100 µM (inactive)
c1ccc2c(c1)[nH]c1c2cc[n+]2cc3c(cc12)CCCC3,GI50,[1],2.51 µM (inactive)
same,GI50,[2],16.3 µM (inactive)
same,GI50,[3],3.18 µM (inactive)
same,GI50,[4],4.89 µM (inactive)
same,GI50,[5],3.75 µM (inactive)
same,GI50,[6],2.76 µM (inactive)
same,GI50,[7],1.57 µM (inactive)
same,GI50,[8],1.47 µM (inactive)
same,GI50,[9],1.34 µM (inactive)
same,GI50,[56],1.64 µM (inactive)
same,GI50,[10],3 µM (inactive)
same,GI50,[11],2.3 µM (inactive)
same,GI50,[12],2.61 µM (inactive)
same,GI50,[13],6.68 µM (inactive)
same,GI50,[14],1.79 µM (inactive)
same,GI50,[57],2.42 µM (inactive)
same,GI50,[17],7.18 µM (inactive)
same,GI50,[19],2.39 µM (inactive)
same,GI50,[20],1.66 µM (inactive)
same,GI50,[21],2.24 µM (inactive)
same,GI50,[22],44.6 µM (inactive)
same,GI50,[23],17.2 µM (inactive)
same,GI50,[24],2.69 µM (inactive)
same,GI50,[25],1.87 µM (inactive)
same,GI50,[26],1.18 µM (inactive)
same,GI50,[27],1.91 µM (inactive)
same,GI50,[28],2.45 µM (inactive)
same,GI50,[29],1.54 µM (inactive)
same,GI50,[30],5.38 µM (inactive)
same,GI50,[31],6.93 µM (inactive)
same,GI50,[32],0.38 µM (active)
same,GI50,[33],1.59 µM (inactive)
same,GI50,[35],3.87 µM (inactive)
same,GI50,[36],1.6 µM (inactive)
same,GI50,[37],2.03 µM (inactive)
same,GI50,[39],3.25 µM (inactive)
same,GI50,[40],1.66 µM (inactive)
same,GI50,[41],2.83 µM (inactive)
same,GI50,[42],2.93 µM (inactive)
same,GI50,[43],1.53 µM (inactive)
same,GI50,[44],10.5 µM
same,GI50,[45],1.63 µM (inactive)
same,GI50,[46],3.28 µM (inactive)
same,GI50,[58],5.96 µM (inactive)
same,GI50,[47],3.87 µM (inactive)
same,GI50,[48],4.09 µM (inactive)
same,GI50,[49],1.75 µM (inactive)
same,GI50,[50],2.1 µM (inactive)
same,GI50,[51],2.13 µM (inactive)
same,GI50,[59],1.16 µM (inactive)
same,GI50,[52],1.72 µM (inactive)
same,GI50,[53],2 µM (inactive)
same,GI50,[54],1.7 µM (inactive)
same,GI50,[55],2.28 µM (inactive)
O=C(O)CNCCc1ccccc1,GI50,[1],> 100 µM (inactive)
same,GI50,[2],> 100 µM (inactive)
same,GI50,[3],> 100 µM (inactive)
same,GI50,[4],> 100 µM (inactive)
same,GI50,[5],> 100 µM (inactive)
same,GI50,[6],> 100 µM (inactive)
same,GI50,[7],> 100 µM (inactive)
same,GI50,[8],> 100 µM (inactive)
same,GI50,[9],> 100 µM (inactive)
same,GI50,[10],> 100 µM (inactive)
same,GI50,[11],> 100 µM (inactive)
same,GI50,[12],> 100 µM (inactive)
same,GI50,[13],> 100 µM (inactive)
same,GI50,[14],> 100 µM (inactive)
same,GI50,[57],> 100 µM (inactive)
same,GI50,[15],> 100 µM (inactive)
same,GI50,[16],> 100 µM (inactive)
same,GI50,[17],> 100 µM (inactive)
same,GI50,[18],> 100 µM (inactive)
same,GI50,[19],> 100 µM (inactive)
same,GI50,[20],> 100 µM (inactive)
same,GI50,[21],> 100 µM (inactive)
same,GI50,[22],> 100 µM (inactive)
same,GI50,[23],> 100 µM (inactive)
same,GI50,[24],> 100 µM (inactive)
same,GI50,[27],> 100 µM (inactive)
same,GI50,[28],> 100 µM (inactive)
same,GI50,[29],> 100 µM (inactive)
same,GI50,[30],> 100 µM (inactive)
same,GI50,[31],> 100 µM (inactive)
same,GI50,[32],> 100 µM (inactive)
same,GI50,[33],> 100 µM (inactive)
same,GI50,[34],> 100 µM (inactive)
same,GI50,[35],> 100 µM (inactive)
same,GI50,[36],> 100 µM (inactive)
same,GI50,[37],> 100 µM (inactive)
same,GI50,[38],> 100 µM (inactive)
same,GI50,[39],> 100 µM (inactive)
same,GI50,[40],> 100 µM (inactive)
same,GI50,[41],> 100 µM (inactive)
same,GI50,[42],> 100 µM (inactive)
same,GI50,[43],> 100 µM (inactive)
same,GI50,[44],> 100 µM
same,GI50,[45],> 100 µM (inactive)
same,GI50,[46],> 100 µM (inactive)
same,GI50,[58],> 100 µM (inactive)
same,GI50,[47],> 100 µM (inactive)
same,GI50,[49],> 100 µM (inactive)
same,GI50,[50],> 100 µM (inactive)
same,GI50,[51],> 100 µM (inactive)
same,GI50,[59],> 100 µM (inactive)
same,GI50,[52],> 100 µM (inactive)
same,GI50,[53],> 100 µM (inactive)
same,GI50,[54],> 100 µM (inactive)
same,GI50,[55],> 100 µM (inactive)
